# Laboratory results from PMC10459686, “Preclinical Evaluation of a New Series of Albumin-Binding ^177Lu-Labeled PSMA-Based Low-Molecular-Weight Radiotherapeutics” (Molecules, 2023).
# Experiments:
# PSMA+ PC3 PIP cells = experiment: Clonogenic survival assay; type: cell-based, human; conditions: 48 h treatment at 37 °C
# Method: Cells (200–1000) were seeded in 60 mm culture dishes. Each radioligand (^177Lu-L1, ^177Lu-Alb-L2, ^177Lu-Alb-L5) was diluted in a prewarmed medium at different concentrations (0, 0.37, 1.85, 3.7, 18.5, 37, 185, and 370 kBq/mL) and incubated with the cells for 48 h, as we previously reported. The radiolabeled compound was replaced with fresh medium, and cells were incubated for 2 weeks or until colonies had at least 50 cells. The colonies were stained with crystal violet and counted, and the surviving fraction was normalized to the control plating efficiency, as previously described.
# [1] = test system: patients with metastatic castration-resistant prostate cancer; design: method as in PMID 34161051, PMID 34385339; conditions: treatment group of randomized patients; cited from earlier work
# patients = test system: patients; design: method as in PMID 32949253; conditions: than 177Lu-EB-PSMA-617 and 177Lu-PSMA-ALB-56; clinical studies; cited from earlier work
Structure (SMILES),Activity to reduce cell survival to 37% (A0) (PSMA+ PC3 PIP cells),Concentration of radioactivity for complete cell killing (PSMA+ PC3 PIP cells),Median overall survival [1],"Kidney-absorbed dose, fold lower (patients)"
"O=C(O)CCC(NC(=O)NC(CCCCN(Cc1ccc(Br)cc1)C(=O)CCCCNC(=O)CN1CCN(CC(=O)O)CCN(CC(=O)O)CCN(CC(=O)O)CC1)C(=O)O)C(=O)O (stereo not shown) [177Lu-L1, metal not drawn]",18.5 kBq/mL,370 kBq/mL,,
O=C([O-])CN1CCN(CC(=O)[O-])CCN(CC(=O)NCC2CCC(C(=O)N[C@@H](Cc3ccc4ccccc4c3)C(=O)NCCCC[C@H](NC(=O)N[C@@H](CCC(=O)O)C(=O)O)C(=O)O)CC2)CCN(CC(=O)[O-])CC1.[177Lu+3] (stereo partly shown) [177Lu-PSMA-617],,,15.3 months,~ 4 fold
